pIC50: −log10 of the molar value. ≈ marks a conversion by molar mass, not a printed value. Where “and” joins values, the source holds several entries; their conditions need not be identical. Equal values may be shown once. Read-outs that look alike come from different tables or passages of the source. Marks after values point to notes of the source that are not given here.
Tests used:
[1] = tested on: Staphylococcus aureus and S. epidermidis; settings: cited from earlier work
[2] = tested on: Staphylococcus epidermidis (ATCC 12228); assay: MIC assay (broth microdilution, CLSI); format: cell-based; settings: Staphylococcus epidermidis
P. aeruginosa (PAO1) = assay: MIC assay (broth microdilution, CLSI); format: cell-based; settings: Pseudomonas aeruginosa, PAO1; read-out: PAO1 MIC
[3] = tested on: methicillin-resistant S. aureus (MRSA) strains; assay: MIC assay, values summarised over MRSA strains; format: cell-based, Staphylococcus aureus
[4] = tested on: S. aureus clinical isolate SA 129; assay: MIC assay (broth microdilution, CLSI); settings: Staphylococcus aureus, read-out: MIC, SA 129
A. baumannii 19606 = assay: MIC assay (broth microdilution, CLSI); format: cell-based, Acinetobacter baumannii; settings: Acinetobacter baumannii, 19606; read-out: A. baumannii 19606 MIC
MRSA-2 = assay: MIC assay with Tiron or metal(II) cation co-treatment; format: cell-based, Staphylococcus aureus; settings: Staphylococcus aureus
[5] = tested on: VRE (E. faecium ATCC 700221) planktonic cells and biofilms; assay: Calgary Biofilm Device (CBD) assay, MBC/MBEC; format: cell-based, Enterococcus faecium; settings: c lowest concentration tested; for MBC: Enterococcus
[6] = tested on: Staphylococcus epidermidis (ATCC 35984), MRSE; assay: MIC assay (broth microdilution, CLSI); format: cell-based; settings: for MIC: Staphylococcus epidermidis
in vitro = format: cell-based; settings: human
E. coli UAEC-1 = assay: MIC assay (broth microdilution, CLSI); format: cell-based; settings: Escherichia coli, UAEC1; read-out: E. coli UAEC-1 MIC
[7] = tested on: S. aureus clinical isolate SA 138; assay: MIC assay (broth microdilution, CLSI); settings: Staphylococcus aureus, read-out: MIC, SA 138
[8] = tested on: M. tuberculosis H37Ra (ATCC 25177); assay: Mycobacterium tuberculosis MIC assay; format: cell-based; settings: Mycobacterium tuberculosis
In short: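 Culture diluted to OD600 0.01 and exposed to compounds in 0.5% final DMSO, each compound tested in three rows. Growth read as OD600 absorbance. Data from three independent experiments.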

K. pneumoniae 13883 = assay: MIC assay (broth microdilution, CLSI); format: cell-based, Klebsiella pneumoniae; settings: Klebsiella pneumoniae, 13883; read-out: K. pneumoniae 13883 MIC
human red blood cells = assay: Hemolysis assay with red blood cells; settings: human, 1 h, 200 μM, pH 7.2
In short: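 Hemolysis expressed as percent of the Triton X signal with DMSO as zero, using OD405 of supernatant. Compounds from DMSO stocks were incubated with triple-washed human erythrocytes for 1 hour at 37° C. before centrifugation; three independent experiments.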

[9] = tested on: MRSA-1 (methicillin-resistant Staphylococcus aureus clinical isolate); assay: MIC assay (broth microdilution, CLSI); format: cell-based; settings: Staphylococcus aureus, MRSA, read-out: MIC, MRSA-1
[10] = Aqueous solubility under MIC assay conditions; format: physicochemical; settings: MIC assay media, 37 °C, aqueous buffer; read-out: [aq. soluble]
MRSA BAA-1707 = assay: MIC assay (broth microdilution, CLSI); settings: Staphylococcus aureus, read-out: MIC, MRSA BAA-1707
[11] = tested on: MRSA-2 (methicillin-resistant Staphylococcus aureus clinical isolate); assay: MIC assay (broth microdilution, CLSI); format: cell-based; settings: Staphylococcus aureus, MRSA, read-out: MIC, MRSA-2
MRSA BAA-44 = assay: MIC assay (broth microdilution, CLSI); settings: Staphylococcus aureus, read-out: MIC, MRSA BAA-44
[12] = tested on: Enterococcus faecium (ATCC 700221), VRE; assay: MIC assay (broth microdilution, CLSI); format: cell-based
[13] = tested on: S. aureus clinical isolate SA 156; assay: MIC assay (broth microdilution, CLSI); settings: Staphylococcus aureus, read-out: MIC, SA 156
S. epidermidis 12228 = assay: MIC assay with Tiron or metal(II) cation co-treatment; format: cell-based, Staphylococcus epidermidis; settings: Staphylococcus epidermidis
[14] = tested on: MRSA BAA-1707 planktonic cells and biofilms; assay: Calgary Biofilm Device (CBD) assay, MBC/MBEC; settings: Staphylococcus aureus, read-out: MRSA BAA-1707 MBC
HeLa cells = assay: in vitro; format: cell-based; settings: human, 24 h
[15] = Mouse toxicity evaluation; format: in vivo, C57BL/6 mice; settings: once daily oral gavage in corn oil, 7 days; 202 22.1 mg/kg, 209 4.2 mg/kg
Experimental: Groups of five C57BL/6 mice (Charles River Laboratories International, Inc.; mice were eight weeks old) were treated once daily with HPs 202 (22.1 mg/kg) and 209 (4.2 mg/kg) for 7 days via oral gavage (0.25 mL of formulated corn oil for 25 gram mouse on average).

E. faecium 700221 (VRE) = assay: MIC assay with Tiron or metal(II) cation co-treatment; format: cell-based, Enterococcus faecium
[16] = tested on: methicillin-sensitive S. aureus strains; assay: MIC assay; format: cell-based; settings: Staphylococcus aureus; read-out: MIC against methicillin-sensitive S. aureus strains
[17] = Table 8, read-out: VRE 700221 MBC
[18] = Table 2A, read-out: MIC, Staphylococcus epidermidis (ATCC 35984)
[19] = Table 7, read-out: MIC, MRSE 35984
[20] = Table 7, read-out: MIC, M. tuberculosis H37Ra
[21] = Enterococcus faecium, Table 2A, read-out: MIC, Enterococcus faecium (ATCC 700221)
[22] = Table 7, b lowest concentration tested, read-out: MIC, VRE 700221

Compound: Oc1cccc2nc3ccccc3nc12 [1-hydroxyphenazine]
- activity against staphylococcal pathogens ([1]; earlier report): inactive

Compound: Oc1c(Br)ccc2nc3ccccc3nc12 [Compound 1, 2-bromo-1-hydroxyphenazine]
- MIC against S. aureus and S. epidermidis ([1]; earlier report of the group): 6.25 μM and 1.7 μg/mL

Compound: Oc1ccc(Br)c2nc3cc(Cl)c(Cl)cc3nc12 [Compound 11]
- MIC ([2]; ATCC12228, read-out: MIC, S. epidermidis 12228): 3.13 µM (≈ 1.08 µg/mL)
- MIC ([2]; ATCC12228, read-out: MIC, Staphylococcus epidermidis (ATCC 12228)): 3.13 µM (≈ 1.08 µg/mL)
- MIC (P. aeruginosa (PAO1)): > 100 µM
- growth inhibition activity against at least one MRSA strain [3]: sub-micromolar
- MIC [4]: 0.78 µM (≈ 0.268 µg/mL)
- MIC (A. baumannii 19606): > 100 µM
- MIC (MRSA-2; MRSA-2, no additive (Table 9), read-out: MIC): 0.78 µM
- MBC [5, 17]: 100 µM (≈ 34.4 µg/mL)
- MIC [6, 18]: 1.56 µM (≈ 0.537 µg/mL)
- MIC [6, 19]: 1.56 µM (≈ 0.537 µg/mL)
- IC50 at 24 h (in vitro): > 100 µM
- MIC (E. coli UAEC-1): > 100 µM
- MIC [7]: 0.78 µM (≈ 0.268 µg/mL)
- MIC [8, 20]: 3.13 µM
- MIC ([8]; read-out: MIC, M. tuberculosis): ~1 µg/mL
- MIC (K. pneumoniae 13883): > 100 µM
- % Hemolysis (200 μM) (human red blood cells): 2.7%
- % Hemolysis at 200 μM (human red blood cells): 2.7%
- MIC ([9]; Table 11): 0.39 µM (≈ 0.134 µg/mL)
- solubility at 16 h [10]: 200 µM (≈ 68.8 µg/mL)
- MIC (MRSA BAA-1707): 0.3 µM (≈ 0.103 µg/mL)
- MIC ([11]; Table 2A): 0.78 µM (≈ 0.268 µg/mL)
- MIC ([11]; Table 7, a midpoint of 2-fold range, b lowest concentration tested): 0.78 µM (≈ 0.268 µg/mL)
- MIC (MRSA BAA-44): 1.17 µM (≈ 0.402 µg/mL)
- MIC [12, 21]: 6.25 µM (≈ 2.15 µg/mL)
- MIC [12, 22]: 6.25 µM (≈ 2.15 µg/mL)
- MIC [13]: 1.17 µM (≈ 0.402 µg/mL)

Compound: Oc1c(Br)cc(Br)c2nc3cc(Cl)c(Cl)cc3nc12 [Compound 16]
- MIC (S. epidermidis 12228; S. epidermidis 12228, without Tiron, read-out: MIC): 0.1 µM
- MIC (S. epidermidis 12228; S. epidermidis 12228, read-out: MIC with Tiron): 0.1 µM
- MBC [14]: 6.25 µM (≈ 2.64 µg/mL)
- MIC ([2]; ATCC12228, Table 2A, read-out: MIC, Staphylococcus epidermidis (ATCC 12228)): 0.05 to 0.1 µM (≈ 0.0211 to 0.0423 µg/mL)
- MIC ([2]; ATCC12228, Table 7, b lowest concentration tested, read-out: MIC, S. epidermidis 12228): 0.08 µM (≈ 0.0338 µg/mL)
- MIC (MRSA-2; MRSA-2, without Tiron, read-out: MIC): 12.5 µM
- MIC (MRSA-2; MRSA-2, b lowest concentration tested, read-out: MIC with Tiron): 0.1 µM
- MBC ([5]; Table 5, read-out: VRE MBC): 0.39 µM (≈ 0.165 µg/mL)
- MBC [5, 17]: 0.39 µM (≈ 0.165 µg/mL)
- VRE MBEC ([5]; Table 5): 0.39/0.39 μM
- MIC [6, 18]: 0.2 to 0.39 µM (≈ 0.0846 to 0.165 µg/mL)
- MIC ([6]; Table 2B, read-out: MIC, Staphylococcus epidermidis (ATCC 35984)): 0.3 µM (≈ 0.127 µg/mL)
- MIC [6, 19]: 0.3 to 0.59 µM (≈ 0.127 to 0.25 µg/mL)
- MIC, MRSE 35984 ([6]; Table 7): 0.30^a μM
- pIC50 (HeLa cells): < 4.00
- IC50 at 24 h (in vitro): > 100 µM
- MIC ([8]; 168 h, M. tuberculosis H37Ra, 7 days, read-out: Mtb MIC): 6.25 µM
- MIC [8, 20]: 6.25 µM
- % Hemolysis (200 μM) (human red blood cells): ≤1%
- MIC ([9]; Table 2A): 12.5 µM (≈ 5.29 µg/mL)
- MIC ([9]; Table 2B, b lowest concentration tested): 12.5 µM (≈ 5.29 µg/mL)
- adverse side effects (changes in weight, seizure, death) [15]: no adverse side effects
- MIC (MRSA BAA-1707): 25 µM (≈ 10.6 µg/mL)
- MIC (E. faecium 700221 (VRE); VRE 700221, without Tiron, read-out: MIC): 0.39 µM
- MIC (E. faecium 700221 (VRE); VRE 700221, read-out: MIC with Tiron): 0.39 µM
- MIC (MRSA BAA-44): 50 µM (≈ 21.1 µg/mL)
- MIC [12, 21]: 0.39 µM (≈ 0.165 µg/mL)
- MIC ([12]; Enterococcus faecium, Table 2B, b lowest concentration tested, read-out: MIC, Enterococcus faecium (ATCC 700221)): 0.39 µM (≈ 0.165 µg/mL)
- MIC [12, 22]: 0.39 µM (≈ 0.165 µg/mL)

Compound: COc1cccc(OC)c1C(=O)N[C@@H]1C(=O)N2[C@@H]1SC(C)(C)[C@@H]2C(=O)O [Methicillin, methicillin, reference compound]
- MIC [16]: 0.8 to 1.56 µM (≈ 0.304 to 0.593 µg/mL)
- MIC [4]: 25 µM (≈ 9.51 µg/mL)
- MIC [7]: 25 µM (≈ 9.51 µg/mL)
- MIC [13]: 50 µM (≈ 19 µg/mL)

From patent US20180312473A1, “PHENAZINE DERIVATIVES AS ANTIMICROBIAL AGENTS” (priority 2015, published 2018)
